Assay results as given in ChEMBL document CHEMBL3272305, “Synthesis and comparative skeletal muscle relaxant activity of some 2,4-imidazolidinediones and their corresponding 5-hydroxy-2,4-imidazolidinediones” (J Med Chem, 1978).
Activity calls are given as the source filed them. The calls are words filed in the database; no cut-off is given here.

What was measured:
[1] = tested on: Rattus norvegicus; assay: Inhibition of gastrocnemius twitch in iv dosed Sprague-Dawley rat; type: functional
[2] = species on record: Mus musculus; assay: Induction of muscle incoordination in mouse after 30 mins by rotarod test; type: organism-based, Muscle tissue; settings: in vivo, 0.5 h
[3] = tested on: Mus musculus; assay: Induction of skeletal muscle relaxation in ip dosed albino mouse after 60 mins; type: functional; settings: 1 h
[4] = Toxicity in albino mouse after 72 hrs; type: organism-based; settings: in vivo
[5] = tested on: Mus musculus; assay: Induction of skeletal muscle relaxation in po dosed albino mouse after 60 mins; type: functional; settings: 1 h
[6] = species on record: Rattus norvegicus; assay: (§1) Inhibition of twitch in Charles River rat diaphragm at 60 mg/L after 5 mins; type: functional
[7] = species on record: Mus musculus; assay: Induction of straub tail relaxation in albino mouse assessed as gain of righting reflex in 1 min; type: functional
[8] = tested on: Rattus norvegicus; assay: Inhibition of gastrocnemius twitch in Sprague-Dawley rat at cumulative dose of 36.6 mg/kg, iv relative to control; type: functional
[9] = as §1; type: functional
[10] = species on record: Mus musculus; assay: Muscle relaxant efficacy index, ratio of ED50 for muscle incoordination in mouse to ED50 for induction of straub tail relaxation in albino mouse
[11] = Therapeutic index, ratio of LD50 for albino mouse to ED50 for induction of straub tail relaxation in albino mouse; type: organism-based; settings: in vivo, read-out: Ratio LD50/ED50

Structure (SMILES)	ED50 [1] [µmol/kg]	ED50 [2] [mg/kg]	ED50 [3] [mg/kg]	LD50 at 72 h [4] [mg/kg]	ED50 [5] [mg/kg]	inhibition [6]	ED50 [7] [mg/kg]	inhibition in vivo at 36.6 mg/kg [8] [%]	inhibition at 60 µg/mL [9] [%]	Ratio ED50 [10]	selectivity ratio [11]
CC(=O)Nc1ccc(-c2ccc(/C=N/N3CC(=O)NC3=O)o2)cc1	> 112	> 1000	> 1000	1140	> 1000	inactive	> 1000	4	–	–	–
Nc1ccc(-c2ccc(/C=N/N3C(=O)NC(=O)C3O)o2)cc1 (stereo not given)	39	> 1000	> 1000	192	> 1000	–	> 1000	-67	≥ 40	–	–
O=C1CN(/N=C/c2ccc(-c3ccc(F)cc3)o2)C(=O)N1	38	369	105	1400	112	–	950	-71	≥ 40	0.4	1.5
N#Cc1ccc(-c2ccc(/C=N/N3C(=O)NC(=O)C3O)o2)cc1 (stereo not given)	25	96	156	104	> 1000	–	743	-69	≥ 40	0.13	0.14
O=C1NC(=O)N(/N=C/c2ccc(-c3ccc(Cl)c(Cl)c3)o2)C1O (stereo not given)	19	10	72	209	109	–	34	-82	≥ 40	0.3	6.1
O=C1NC(=O)N(/N=C/c2ccc(-c3ccc(F)cc3)o2)C1O (stereo not given)	91	240	1000	784	> 1000	–	> 1000	-53	≥ 40	<0.24	–
N#Cc1ccc(-c2ccc(/C=N/N3CC(=O)NC3=O)o2)cc1	20	91	> 1000	2340	> 1000	–	> 1000	-76	≥ 40	<0.09	–
O=C1NC(=O)N(/N=C/c2ccc(-c3ccc([N+](=O)[O-])cc3)o2)C1O (stereo not given)	15	171	> 1000	> 5000	> 1000	–	> 1000	-76	≥ 40	<0.17	–
Nc1ccc(-c2ccc(/C=N/N3CC(=O)NC3=O)o2)cc1	> 129	> 1000	> 1000	1040	> 1000	inactive	> 1000	-19	–	–	–
CC(=O)Nc1ccc(-c2ccc(/C=N/N3C(=O)NC(=O)C3O)o2)cc1 (stereo not given)	> 107	> 1000	> 1000	673	> 1000	inactive	> 1000	-10	–	–	–
O=C1CN(/N=C/c2ccc(-c3ccc(Cl)cc3)o2)C(=O)N1	22	40	1000	> 6000	> 1000	–	> 1000	-74	≥ 40	<0.04	–
O=C1CN(/N=C/c2ccc(-c3ccc([N+](=O)[O-])cc3)o2)C(O)=N1 [DANTROLENE]	7	153	83	> 7000	490	–	56	-80	≥ 40	2.7	124
O=C1NC(=O)N(/N=C/c2ccc(-c3ccc(Cl)cc3)o2)C1O (stereo not given)	16	63	> 1000	522	> 1000	–	> 1000	-77	≥ 40	<0.06	–
O=C1CN(/N=C/c2ccc(-c3ccc(Cl)c(Cl)c3)o2)C(=O)N1 [CLODANOLENE]	10	181	647	> 7000	> 1000	–	> 1000	-77	≥ 40	<0.18	–
O=C1CN(/N=C/c2ccc(-c3cccc(C(F)(F)F)c3)o2)C(=O)N1	50	166	143	274	647	–	184	-74	≥ 40	0.85	1.4
O=C1NC(=O)N(/N=C/c2ccc(-c3cccc(C(F)(F)F)c3)o2)C1O (stereo not given)	96	85	244	563	166	–	> 1000	-57	≥ 40	<0.09	–
